This assay addresses T1, human integrin αVβ3 protein (Homo sapiens, UniProt P05106+P06756).
T1 construct: purchased Chemicom, Merck
As to the kind of experiment: Radio-SDS-PAGE with integrin (negative control protein). The following applies: radiopeptide incubated with integrin αVβ3 (200 µg/mL) 30 min at 37 °C, radio-TLC scan. In kind it is binding. The method, then: SDS-PAGE gel electrophoresis was performed. Radioactivity distribution was determined using a radio-TLC scanner (Mini-Gita, 60–150 keV, BGO-Crystal, window 25 × 2 mm, thickness 5 mm, resolution optimized for Tc-99m; RayTest, Munich, Germany) to detect [^99mTc]Tc-iPD-L1 and [^99mTc]Tc-WL12 binding to PD-L1 protein.
Briefly, ^99mTc-labeled WL12 and iPD-L1 solutions (100 µL) (1 mg/mL peptide) were incubated with human recombinant PD-L1 protein (100 µL) (200 µg/mL; FineTest; Cat: P6857) (radiopeptide-PD-L1 interaction) or human integrin αVβ3 protein (100 µL) (negative control; 200 µg/mL) (Chemicom, Merck; Burlington, MA, USA) (radiopeptide-integrin interaction) for 30 min at 37 °C, after which the samples were diluted with Laemmli sample buffer (containing 10% SDS, Tris-Cl 125 mM, pH = 6.8, 12.5% glycerol and 0.005% bromophenol blue after dye) to give final protein concentrations of 25 µg/mL. […] Finally, the radioactivity distribution on the gels was scanned using a radio-TLC detector to determine the percentage of [^99mTc]Tc-iPD-L1 or [^99mTc]Tc-WL12 radioactivity associated with proteins.
In vitro-specific recognition of [^99mTc]Tc-iPD-L1 and [^99mTc]Tc-WL12 by the PD-L1 protein was performed using a combination of radio-TLC and SDS-PAGE (radio-SDS-PAGE). […] Therefore, the radioactivity associated with free peptides is in the front of the gel plate (around 60–70 mm). […]

SMILES strings stand for the structures.

T1 sequence (P06756 31-889 limits assumed): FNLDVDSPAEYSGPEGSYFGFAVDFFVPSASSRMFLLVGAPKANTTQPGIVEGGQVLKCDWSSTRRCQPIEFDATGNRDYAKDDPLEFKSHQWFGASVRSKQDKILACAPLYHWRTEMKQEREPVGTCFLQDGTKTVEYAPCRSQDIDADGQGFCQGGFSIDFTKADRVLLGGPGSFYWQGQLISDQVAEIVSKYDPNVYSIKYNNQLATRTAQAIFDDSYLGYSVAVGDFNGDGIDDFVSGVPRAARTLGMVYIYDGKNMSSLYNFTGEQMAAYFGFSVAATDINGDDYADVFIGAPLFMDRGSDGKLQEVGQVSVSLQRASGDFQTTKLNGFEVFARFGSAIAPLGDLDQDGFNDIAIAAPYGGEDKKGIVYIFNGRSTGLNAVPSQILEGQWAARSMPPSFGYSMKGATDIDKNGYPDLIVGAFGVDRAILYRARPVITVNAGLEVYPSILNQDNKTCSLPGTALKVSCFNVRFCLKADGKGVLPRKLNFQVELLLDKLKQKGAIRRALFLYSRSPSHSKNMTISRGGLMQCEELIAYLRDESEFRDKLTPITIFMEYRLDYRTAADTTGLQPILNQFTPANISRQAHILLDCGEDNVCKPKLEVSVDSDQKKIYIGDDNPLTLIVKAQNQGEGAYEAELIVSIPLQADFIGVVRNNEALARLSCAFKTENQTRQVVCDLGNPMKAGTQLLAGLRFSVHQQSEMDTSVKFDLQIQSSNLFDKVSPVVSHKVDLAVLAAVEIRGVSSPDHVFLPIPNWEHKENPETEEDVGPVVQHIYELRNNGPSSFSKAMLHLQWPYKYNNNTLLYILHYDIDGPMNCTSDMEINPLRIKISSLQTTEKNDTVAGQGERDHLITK
T1 sequence (P06756 891-1048 limits assumed): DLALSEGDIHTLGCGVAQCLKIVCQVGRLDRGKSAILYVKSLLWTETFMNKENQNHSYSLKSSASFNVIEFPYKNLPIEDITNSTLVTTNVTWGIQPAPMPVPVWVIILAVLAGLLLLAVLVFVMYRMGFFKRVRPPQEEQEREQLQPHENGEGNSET
T1 sequence (P05106 27-788): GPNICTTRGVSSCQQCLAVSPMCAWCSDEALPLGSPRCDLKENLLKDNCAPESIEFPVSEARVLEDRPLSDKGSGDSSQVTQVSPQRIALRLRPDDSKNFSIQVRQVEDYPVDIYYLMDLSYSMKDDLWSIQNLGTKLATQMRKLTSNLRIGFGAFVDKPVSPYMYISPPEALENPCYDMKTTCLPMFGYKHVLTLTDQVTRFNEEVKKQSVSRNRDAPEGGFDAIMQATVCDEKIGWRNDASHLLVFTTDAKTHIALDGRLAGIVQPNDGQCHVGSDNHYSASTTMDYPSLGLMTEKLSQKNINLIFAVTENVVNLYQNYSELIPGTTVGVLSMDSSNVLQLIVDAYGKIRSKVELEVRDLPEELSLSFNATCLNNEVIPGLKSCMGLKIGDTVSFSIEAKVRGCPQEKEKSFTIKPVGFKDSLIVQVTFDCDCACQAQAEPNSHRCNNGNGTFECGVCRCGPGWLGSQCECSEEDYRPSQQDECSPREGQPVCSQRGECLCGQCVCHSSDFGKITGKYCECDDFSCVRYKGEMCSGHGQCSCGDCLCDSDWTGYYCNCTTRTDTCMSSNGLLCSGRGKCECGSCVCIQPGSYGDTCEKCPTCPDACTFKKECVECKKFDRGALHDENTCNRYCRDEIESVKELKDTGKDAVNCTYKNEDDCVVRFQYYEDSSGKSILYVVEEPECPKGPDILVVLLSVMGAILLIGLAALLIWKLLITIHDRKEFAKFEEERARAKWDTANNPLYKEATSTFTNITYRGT

Consider `CCCC[C@H]1C(=O)N(C)[C@@H](CCCC)C(=O)N[C@@H](CCCNC(=O)c2ccc(NN)nc2)C(=O)N[C@H](C(=O)NCC(N)=O)CSCC(=O)N[C@@H](Cc2ccc(O)cc2)C(=O)N(C)[C@@H](C)C(=O)N[C@@H](CC(N)=O)C(=O)N2CCC[C@H]2C(=O)N[C@@H](Cc2c[nH]cn2)C(=O)N[C@@H](CC(C)C)C(=O)N2C[C@H](O)C[C@H]2C(=O)N[C@@H](Cc2c[nH]c3ccccc23)C(=O)N[C@@H](CO)C(=O)N[C@@H](Cc2cn(C)c3ccccc23)C(=O)N1C` [[^99mTc]Tc-WL12, metal not drawn], for which the “shift in radioactivity with integrin (negative control)” value is recorded as “no shift in radioactivity”.

The record behind these values is article PMC10747430, “^99mTc-Labeled Cyclic Peptide Targeting PD-L1 as a Novel Nuclear Imaging Probe” (Pharmaceutics, 2023).
